Assay results from the supplement of paper PMC11208160.

Assay: recombinant UMI read abundance after kanamycin selection (control-corrected) (log10(CPM+1)); higher = more efficient recombination; extreme values may be limits of the assay; sequences stand for … in AGTGCAGAGAAAATCGGCCAGTTTTCTCTGCCTGCAGTCCGCATGCCGTGGGACCCCTTGGGTTCTAACCTGTTGCCTAGATTTATGCAGCGGACTGCCTTTCTCCCAAAGTGATAAACCGG…AGGTTGGTTTCACT; site = the 11-nt donor
In short: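 Each donor and donor-binding-loop pair was tracked by a 12-nt UMI on a plasmid carrying a promoterless kanamycin gene. With a second plasmid supplying a fixed target and T7-inducible IS621 bridge recombinase, the pool was plated in Escherichia coli on IPTG (0.07 mM) plus kanamycin or unselected. Sequencing of recombinant UMIs across the donor–target junction gave counts expressed as log10(CPM+1) after replicate averaging and control-derived scaling.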
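Also: IS621 bridge recombinase in Escherichia coli cells against a fixed T5 target plasmid.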

Compared with “TACACCTCATGGACCGGTTTTCCCGGTAATCCGTATTTGAA (site TACACCTCTTT)”, “TACACCTCATGGACCGGTTTTCCCGGTAATCCGTATTTGCA (site TACACCTCTTG)” is higher in “recombinant UMI read abundance (log10)” value: 0.804 for the first, 2.35 for the second.

“TACAGCCCATGGACCGGTTTTCCCGGTAATCCGTATTTGGA (site TACAGCCCTTC)” and “TACATCCCATGGACCGGTTTTCCCGGTAATCCGTATTTGAG (site TACATCCCTCT)” are within 0.2 log units of each other in “recombinant UMI read abundance (log10)” value: 0.0282 for the first, 0.0123 for the second.

Going from “TACATGACATGGACCGGTTTTCCCGGTAATCCGTATTTGCG (site TACATGACTCG)” to “TACATGACATGGACCGGTTTTCCCGGTAATCCGTATTTGTG (site TACATGACTCA)”, the “recombinant UMI read abundance (log10)” value falls from 1.12 to 0.61.

First: TACATGTCATGGACCGGTTTTCCCGGTAATCCGTATTTGTC (site TACATGTCTGA)
Second: TACCCACCATGGACCGGTTTTCCCGGTAATCCGTATTTGAC (site TACCCACCTGT)
The “recombinant UMI read abundance (log10)” value of the first is higher: 1.56 for the first, 0 for the second.

Compared with “TACCGTTCATGGACCGGTTTTCCCGGTAATCCGTATTTGTT (site TACCGTTCTAA)”, “TACCTCCCATGGACCGGTTTTCCCGGTAATCCGTATTTGGC (site TACCTCCCTGC)” is lower in “recombinant UMI read abundance (log10)” value: 0.218 for the first, 0 for the second.

“TACCTGCCATGGACCGGTTTTCCCGGTAATCCGTATTTGTA (site TACCTGCCTTA)” and “TACCTTACATGGACCGGTTTTCCCGGTAATCCGTATTTGGA (site TACCTTACTTC)” are within 0.2 log units of each other in “recombinant UMI read abundance (log10)” value: 0.0209 for the first, 0.0267 for the second.

Compared with “TACGCACCATGGACCGGTTTTCCCGGTAATCCGTATTTGAG (site TACGCACCTCT)”, “TACGGATCATGGACCGGTTTTCCCGGTAATCCGTATTTGTA (site TACGGATCTTA)” is higher in “recombinant UMI read abundance (log10)” value: 0.0119 for the first, 0.989 for the second.

Compared with “TACGGTACATGGACCGGTTTTCCCGGTAATCCGTATTTGTG (site TACGGTACTCA)”, “TACGGTGCATGGACCGGTTTTCCCGGTAATCCGTATTTGAC (site TACGGTGCTGT)” is higher in “recombinant UMI read abundance (log10)” value: 0.582 for the first, 1.15 for the second.

Compared with “TACGTGACATGGACCGGTTTTCCCGGTAATCCGTATTTGCT (site TACATGACTAG)”, “TACGTGACATGGACCGGTTTTCCCGGTAATCCGTATTTGCT (site TACCTGACTAG)” is lower in “recombinant UMI read abundance (log10)” value: 1.65 for the first, 0.0236 for the second.

Going from “TACGTGACATGGACCGGTTTTCCCGGTAATCCGTATTTGCT (site TACGTGACTAG)” to “TACGTGACATGGACCGGTTTTCCCGGTAATCCGTATTTGCT (site TACTTGACTAG)”, the “recombinant UMI read abundance (log10)” value falls from 2.43 to 0.238.

“TACTAGGCATGGACCGGTTTTCCCGGTAATCCGTATTTGGT (site TACTAGGCTAC)” and “TACTAGGCATGGACCGGTTTTCCCGGTAATCCGTATTTGGT (site TCCTAGGCTAC)” are within 0.2 log units of each other in “recombinant UMI read abundance (log10)” value: 0.225 for the first, 0.0602 for the second.

“TACTAGGCATGGACCGGTTTTCCCGGTAATCCGTATTTGGT (site TGCTAGGCTAC)” and “TACTAGGCATGGACCGGTTTTCCCGGTAATCCGTATTTGGT (site TTCTAGGCTAC)” are within 0.2 log units of each other in “recombinant UMI read abundance (log10)” value: 0.0175 for the first, 0.00516 for the second.

Going from “TACTATGCATGGACCGGTTTTCCCGGTAATCCGTATTTGCG (site TACTATGCTCG)” to “TACTGGACATGGACCGGTTTTCCCGGTAATCCGTATTTGCT (site TACTAGACTAG)”, the “recombinant UMI read abundance (log10)” value rises from 0.64 to 0.948.

Going from “TACTGGACATGGACCGGTTTTCCCGGTAATCCGTATTTGCT (site TACTCGACTAG)” to “TACTGGACATGGACCGGTTTTCCCGGTAATCCGTATTTGCT (site TACTGGACTAG)”, the “recombinant UMI read abundance (log10)” value rises from 0.188 to 2.01.

“TACTGGACATGGACCGGTTTTCCCGGTAATCCGTATTTGCT (site TACTTGACTAG)” and “TACTTGACATGGACCGGTTTTCCCGGTAATCCGTATTTGCC (site TACTTGACTAG)” are within 0.2 log units of each other in “recombinant UMI read abundance (log10)” value: 0.00209 for the first, 0.0078 for the second.

“TACTTGACATGGACCGGTTTTCCCGGTAATCCGTATTTGCC (site TACTTGACTCG)” and “TACTTGACATGGACCGGTTTTCCCGGTAATCCGTATTTGCC (site TACTTGACTGG)” are within 0.2 log units of each other in “recombinant UMI read abundance (log10)” value: 0.0284 for the first, 0 for the second.

“TACTTGACATGGACCGGTTTTCCCGGTAATCCGTATTTGCC (site TACTTGACTTG)” and “TACTTGACATGGACCGGTTTTCCCGGTAATCCGTATTTGTG (site TACTTGACTCA)” are within 0.2 log units of each other in “recombinant UMI read abundance (log10)” value: 0.00491 for the first, 0.00608 for the second.

Compared with “TACTTTCCATGGACCGGTTTTCCCGGTAATCCGTATTTGCG (site TACTTTCCTCG)”, “TACTTTCCATGGACCGGTTTTCCCGGTAATCCGTATTTGCT (site TACTTTCCTAG)” is lower in “recombinant UMI read abundance (log10)” value: 1.29 for the first, 0.537 for the second.

Compared with “TACTTTGCATGGACCGGTTTTCCCGGTAATCCGTATTTGGA (site TACTTTGCTTC)”, “TAGAAATCATGGACCGGTTTTCCCGGTAATCCGTATTTGCG (site TAGAAATCTCG)” is higher in “recombinant UMI read abundance (log10)” value: 0.0143 for the first, 2.05 for the second.

“TAGAAATCATGGACCGGTTTTCCCGGTAATCCGTATTTGCG (site TAGCAATCTCG)” and “TAGAAATCATGGACCGGTTTTCCCGGTAATCCGTATTTGCG (site TAGGAATCTCG)” are within 0.2 log units of each other in “recombinant UMI read abundance (log10)” value: 1.42 for the first, 1.44 for the second.

“TAGAAATCATGGACCGGTTTTCCCGGTAATCCGTATTTGCG (site TAGTAATCTCG)” and “TAGAACACATGGACCGGTTTTCCCGGTAATCCGTATTTGTC (site TAGAACACTGA)” are within 0.2 log units of each other in “recombinant UMI read abundance (log10)” value: 2.33 for the first, 2.34 for the second.

Going from “TAGAAGACATGGACCGGTTTTCCCGGTAATCCGTATTTGCC (site TAGAAGACTGG)” to “TAGAATACATGGACCGGTTTTCCCGGTAATCCGTATTTGTA (site TAGAATACTTA)”, the “recombinant UMI read abundance (log10)” value falls from 2.25 to 1.55.

Compared with “TAGAATACATGGACCGGTTTTCCCGGTAATCCGTATTTGTA (site TAGAATACTTC)”, “TAGAATACATGGACCGGTTTTCCCGGTAATCCGTATTTGTA (site TAGAATACTTG)” is higher in “recombinant UMI read abundance (log10)” value: 0.00357 for the first, 0.697 for the second.

Going from “TAGAATACATGGACCGGTTTTCCCGGTAATCCGTATTTGTA (site TAGAATACTTT)” to “TAGAATACATGGACCGGTTTTCCCGGTAATCCGTATTTGTG (site TAGAATACTCA)”, the “recombinant UMI read abundance (log10)” value rises from 0.208 to 2.01.

“TAGACGACATGGACCGGTTTTCCCGGTAATCCGTATTTGAC (site TAGACGACTGT)” and “TAGACGGCATGGACCGGTTTTCCCGGTAATCCGTATTTGGC (site TAGACGGCTGC)” are within 0.2 log units of each other in “recombinant UMI read abundance (log10)” value: 2.6 for the first, 2.75 for the second.

Going from “TAGACTCCATGGACCGGTTTTCCCGGTAATCCGTATTTGCA (site TAGACTCCTTG)” to “TAGCAATCATGGACCGGTTTTCCCGGTAATCCGTATTTGCG (site TAGAAATCTCG)”, the “recombinant UMI read abundance (log10)” value falls from 1.54 to 0.

Compared with “TAGCAATCATGGACCGGTTTTCCCGGTAATCCGTATTTGCG (site TAGCAATCTCG)”, “TAGCAATCATGGACCGGTTTTCCCGGTAATCCGTATTTGCG (site TAGGAATCTCG)” is lower in “recombinant UMI read abundance (log10)” value: 1.45 for the first, 0 for the second.

Compared with “TAGCAATCATGGACCGGTTTTCCCGGTAATCCGTATTTGCG (site TAGTAATCTCG)”, “TAGCAGTCATGGACCGGTTTTCCCGGTAATCCGTATTTGTC (site TAGCAGTCTGA)” is higher in “recombinant UMI read abundance (log10)” value: 0.646 for the first, 2.39 for the second.

Compared with “TAGCCAGCATGGACCGGTTTTCCCGGTAATCCGTATTTGAA (site TAGCAAGCTTT)”, “TAGCCAGCATGGACCGGTTTTCCCGGTAATCCGTATTTGAA (site TAGCCAGCTTT)” is higher in “recombinant UMI read abundance (log10)” value: 0.0207 for the first, 0.924 for the second.

“TAGCCAGCATGGACCGGTTTTCCCGGTAATCCGTATTTGAA (site TAGCGAGCTTT)” and “TAGCCAGCATGGACCGGTTTTCCCGGTAATCCGTATTTGAA (site TAGCTAGCTTT)” are within 0.2 log units of each other in “recombinant UMI read abundance (log10)” value: 0.0055 for the first, 0.00915 for the second.

“TAGCCTCCATGGACCGGTTTTCCCGGTAATCCGTATTTGGT (site TAGCCTACTAC)” and “TAGCCTCCATGGACCGGTTTTCCCGGTAATCCGTATTTGGT (site TAGCCTCCTAC)” are within 0.2 log units of each other in “recombinant UMI read abundance (log10)” value: 0.0161 for the first, 0.00993 for the second.

“TAGCCTCCATGGACCGGTTTTCCCGGTAATCCGTATTTGGT (site TAGCCTGCTAC)” and “TAGCCTCCATGGACCGGTTTTCCCGGTAATCCGTATTTGGT (site TAGCCTTCTAC)” are within 0.2 log units of each other in “recombinant UMI read abundance (log10)” value: 0.0298 for the first, 0 for the second.

“TAGCCTGCATGGACCGGTTTTCCCGGTAATCCGTATTTGGT (site TAGCCTACTAC)” and “TAGCCTGCATGGACCGGTTTTCCCGGTAATCCGTATTTGGT (site TAGCCTCCTAC)” are within 0.2 log units of each other in “recombinant UMI read abundance (log10)” value: 0.00931 for the first, 0.00394 for the second.

“TAGCCTGCATGGACCGGTTTTCCCGGTAATCCGTATTTGGT (site TAGCCTGCTAC)” and “TAGCCTGCATGGACCGGTTTTCCCGGTAATCCGTATTTGGT (site TAGCCTTCTAC)” are within 0.2 log units of each other in “recombinant UMI read abundance (log10)” value: 0.0393 for the first, 0.00419 for the second.

“TAGCCTTCATGGACCGGTTTTCCCGGTAATCCGTATTTGAT (site TAGCCTTCTAA)” and “TAGCCTTCATGGACCGGTTTTCCCGGTAATCCGTATTTGAT (site TAGCCTTCTAC)” are within 0.2 log units of each other in “recombinant UMI read abundance (log10)” value: 0.00922 for the first, 0.0113 for the second.

“TAGCCTTCATGGACCGGTTTTCCCGGTAATCCGTATTTGAT (site TAGCCTTCTAG)” and “TAGCCTTCATGGACCGGTTTTCCCGGTAATCCGTATTTGAT (site TAGCCTTCTAT)” are the same in “recombinant UMI read abundance (log10)” value: 0 for the first, 0 for the second.

“TAGCCTTCATGGACCGGTTTTCCCGGTAATCCGTATTTGCT (site TAGCCTTCTAA)” and “TAGCCTTCATGGACCGGTTTTCCCGGTAATCCGTATTTGCT (site TAGCCTTCTAC)” are within 0.2 log units of each other in “recombinant UMI read abundance (log10)” value: 0.0333 for the first, 0.00853 for the second.

With “TAGCCTTCATGGACCGGTTTTCCCGGTAATCCGTATTTGCT (site TAGCCTTCTAG)” the “recombinant UMI read abundance (log10)” value was 0.
